Here are results for one compound from PMC9969250 (2023).

In general, KD refers to the free concentration of one partner at which half of the binding sites on the other are occupied at equilibrium, for simple one-to-one binding.

Test [1] relates to MN4 (DNA, aptamer) GGCGACAAGGAAAATCCTTCAACGAAGTGGGTCGCC
In words: quinine fluorescence quenching. The conditions noted are these: PBS, 5 mM MgCl2; pH 7.4, 20 °C; 0.1 μM quinine; three-parameter fit; per site.

The test system of test [2] is A (boxcar A) (DNA, aptamer) CGTCTAATCTAATCAGGCGACAAGGAAAATCCTTCAACGAAGTGGGTCGCCCTAACTCTCTATCCG
In words: quinine fluorescence quenching. To be noted: PBS, 5 mM MgCl2; pH 7.4, 20 °C; 0.1 μM quinine; three-parameter fit; per site.

As for `C=C[C@H]1CN2CC[C@H]1C[C@H]2[C@H](O)c1ccnc2ccc(OC)cc12`, the KD was 280 ± 60 nM in test [1] and 380 ± 130 nM in test [2].
